In paper PMC10518255, “A first-in-class pan-lysyl oxidase inhibitor impairs stromal remodeling and enhances gemcitabine response and survival in pancreatic cancer” (Nature Cancer, 2023):
Where “and” joins values, the source holds several entries; their conditions need not be identical. Equal values may be shown once.

System: KPC CCs
Assay: Cancer cell invasion into CAF-remodeled 3D organotypic matrices
Format: cell-based, mouse
Conditions: for number of cancer cells invaded per FOV: single replicates
Method: Fig. 3 PXS-5505 inhibition of CAF remodeling in vitro. a, Quantitative PCR with reverse transcription (qRT–PCR) showing in vitro comparison of KPC CAF relative expression of lysyl oxidase family members compared to KPC CCs from the same model (n = 3 biologically independent samples). Comparisons were determined by 2^–∆∆Ct approach. b, Representative images of 3D organotypic matrix contraction assay at days 2, 6 and 12 in the absence (gray) or presence (pink) of PXS-5505 (30 µM). Scale bars, 5 mm. Comparison of measured area of matrices between control and PXS-5505 treatment groups over time (n = 3 technical samples examined over three biologically independent samples). Data are mean ± s.d. c, Concentration of immature divalent DHLNL and mature trivalent Pyr collagen crosslinks determined by LC–MS from control and PXS-5505-treated organotypic matrices at day 12 (n = 3 technical samples examined over two biologically independent samples). Data are mean ± s.d. […] Data are presented as mean ± s.d. […] Comparison of number of CCs invaded per field of view (FOV) as determined by H&E and PanCK staining (nine images taken from three technical samples from each of three biologically independent contracted matrices), normalized to control. Data are mean ± s.d. Scale bars, 100 μm. […] Source data
Following remodeling, 4 × 10^4 KPC CCs were seeded on top of the remodeled matrix in DMEM supplemented with 10% FBS and 1% penicillin–streptomycin and allowed to grow to confluence for 4 days, after which matrices were transferred to an air–liquid interface and CCs allowed to invade into the organotypic matrices for 12 days (Extended Data Fig. 4f). PXS-5505 (30 μM) or PXS-5120 (100 nM) was added to medium at 48-h intervals for the duration. At the end point, matrices were fixed in 10% formalin and processed for histological analysis by H&E and panCK staining. The invasive index was measured in three representative areas per matrix and the number of invaded cells per mm^2 was calculated. No statistical methods were used to predetermine sample sizes but our sample sizes are similar to those reported in previous publications[36],[39].
Extended Data Fig. 4 PXS-5505 inhibits collagen cross-linking by PDAC CAFs in vitro resulting in decreased cancer cell invasion. a. Schematic of organotypic matrix remodeling assay whereby CAFs are embedded into a 3D collagen matrix and growth media supplemented with or without PXS-5505 to inhibit lysyl oxidase family activity b. Chemical structures of lysyl oxidase family catalyzed hydroxyallysine or allysine residues and the subsequent divalent and trivalent bonds that are formed that can be quantified by mass spectrometry. c. Representative images of 3D organotypic matrix contraction by human pancreatic cancer CAFs at days 2, 6 and 12 in the absence (gray) and presence (pink) of PXS-5505 (30 µM). Scale bars = 5 mm. […] Data presented as mean values +/− SD. d. […] Data presented as mean values +/− SD. Relative fold expression of LOXL family members compared to LOX were determined by 2^–∆∆Ct approach. f. […] Comparison of measured area of matrices between control, PXS-5120 and PXS-5505 treatment groups (n = 3) over time. i. […] Representative images of invasion of KPC cancer cells into a contracted organotypic matrix as determined by H&E staining. […]

**Q.** Which depth of invasion (PXS-5505 30 µM) does the source give for `Cl.Cl.NC/C=C(\F)CS(=O)(=O)c1cccc2cccnc12.O` [PXS-5505, (Z)-3-fluoro-4-(quinolin-8-ylsulfonyl)but-2-en-1-amine dihydrochloride monohydrate] here?
**A.** no significant difference in depth of invasion

**Q.** And the “invasion into the organotypic matrices by CCs” value (PXS-5505 30 µM)?
**A.** decrease in invasion

**Q.** And the “number of cancer cells invaded per FOV” value (determined by H&E)?
**A.** 0.4375 and 0.5681 and 0.5386 and 0.8338 and 0.9078 and 0.6013 and 0.6222 and 0.3197 and 1.014

**Q.** And the “number of cancer cells invaded per FOV” value (determined by PanCK)?
**A.** 0.6309 and 0.4054 and 0.3571 and 0.6771 and 0.6115 and 1.118 and 0.7087 and 0.8827 and 0.7763
